Counter-ions that a name gives are not always drawn.
Key:
[1] = system: L-type voltage sensitive calcium channels (3H-D888 binding site); assay: 3H-D-888 binding to rat brain cortical membranes; details: displacement of 3H-D888, rat cortical membranes, 60 minutes at 25° C.
Method: ^3H-D-888 Binding to Rat Brain Cortical Membranes
The method of ^3H-D-888 binding was a modification of Reynolds, I. J., Snowman, A. M. and Synder, S. H. (−)-[^3H] Desmethoxyverapamil labels multiple calcium channel modular receptors in brain and skeletal muscle membranes: differentiation by temperature and dihydropyridines. J. Pharmacol. Exp. Ther. 237: no.3, 731-738, 1986.
The assay tubes contained the following: assay buffer: 50 mM Hepes, 0.2% BSA, pH 7.4 radioligand: 1 πM ^3H-D888 (Amersham) rat cortical membranes: 6 mg/ml original wet weight
This mixture was incubated for 60 minutes at 25° C. The assay was terminated by filtering with a Brandel Cell Harvester over Whatman GF/C filters that had been soaked for at least 120 minutes in 0.3% polyethylenamine (PEI) and washed three times with 5 mL of wash buffer containing 20 mM Hepes, 20 mM MgCl2, pH 7.4. Specific binding was measured with 10 μM methoxyverapamil (D-600). This assay was used to determine in vitro selectivity of compounds vs. L-type voltage sensitive calcium channels, i.e high affinity for the ^3H-D888 binding site would show a lack of selectivity. For example the compound of Example 4 gave a value of about 19.000 nM in this test.
Rat brain cortical membrane preparation: Male Sprague-Dawley Rats were sacrificed by decapitation and the brains were quickly excised. […]

[2] = target: T1, [3H]-emopamil binding site (Cavia porcellus, UniProt Q60490); assay: 3H-Emopamil binding to guinea pig liver membranes; details: displacement of 0.96 nM (-)-3H-emopamil, 60 minutes at 37° C.
T1 construct: from tissue; host or cells: guinea pig liver membranes
T1 sequence (Q60490 1-229): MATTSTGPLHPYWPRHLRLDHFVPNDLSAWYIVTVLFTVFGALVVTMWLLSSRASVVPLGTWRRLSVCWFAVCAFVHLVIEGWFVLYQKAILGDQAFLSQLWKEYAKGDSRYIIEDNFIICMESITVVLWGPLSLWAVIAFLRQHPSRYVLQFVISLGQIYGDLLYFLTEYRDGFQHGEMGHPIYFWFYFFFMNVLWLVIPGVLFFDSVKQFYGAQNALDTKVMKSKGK
Method: ^3H-Emopamil Binding to Guinea Pig Liver Membranes
The method of (−)-^3H-emopamil binding was a modification of Zech, C., Staudinger R., Mühlbacher, J. and Glossmann, H. Novel sites for phenylalkylamines: characterization of a sodium-sensitive drug receptor with (−)-^3H-emopamil. Eur. J. Pharm. 208: 119-130, 1991.
The reaction mixture contained:
Assay buffer: 10 mM Tris-HCl, 0.1 mM phenylmethylsulfonyl fluoride (PMSF), 0.2% bovine serum albumin (BSA), pH 7.4 at 4° C.
Radioligand: 0.96 nM (−)-^3H-emopamil (Amersham).
Guinea pig liver membranes: 40 mg/mL original wet weight.
This mixture was incubated for 60 minutes at 37° C. The incubation was terminated by filtering with a Brandel Cell Harvester over Whatman GF/C filters that had been soaked for at least 120 minutes in 0.3% polyethylenimine (PEI) and washed three times with 5 mL of wash buffer containing 10 mM Tris-HCl, 10 mM MgCl2, 0.2% BSA, pH 7.4 at 25° C. Specific binding was defined with 10 μM emopamil. […]
Guinea-pig liver membrane preparation: Male guinea pigs were sacrificed by CO2 asphyxiation with dry ice. The livers were quickly excised and weighed and rinsed in membrane preparation buffer containing 10 mM Hepes, 1 mM Tris base-EDTA, 250 mM […] Teflon-glass homogenizer with three strokes on ice. […]

Structure (SMILES)	melting point [°C]	value in 3H-D-888 binding test (in vitro selectivity vs. L-type VSCC) [1]	IC50 [2] [nM]
c1ccc2c(c1)CCCC2N1CCCNCC1 (centres unmarked) (as salt: salt) [Example 2, N-(1,2,3,4-Tetrahydro-1-naphthalenyl)homopiperazine]	107 to 109.4		
CN1CCCN(C2CCCc3ccccc32)CC1 (centres unmarked) (as salt: maleate) [Example 1, 1-Methyl-4-(1,2,3,4-tetrahydro-1-naphthalenyl)homopiperazine]	125.4 to 126.3		
CN1CCCN([C@H]2CCCc3ccccc32)CC1 [Example 4, S(+) 1-Methyl-4-(1,2,3,4-tetrahydro-1-naphthalenyl)homopiperazine]		about 19.000 nM	17
CC(C)N1CCCN(C2CCCc3ccccc32)CC1 (centres unmarked) (as salt: hydrochloride) [Example 13, 1-Isopropyl-4-(1,2,3,4-tetrahydro-1-naphthalenyl)homopiperazine]	149.5 to 151		
COc1cccc2c1CCCC2N1CCCN(C)CC1 (centres unmarked) (as salt: hydrochloride) [Example 7, 1-Methyl-4-(5-methoxy-1,2,3,4-tetrahydro-1-naphthalenyl)homopiperazine]	172.2 to 176.6		

Other lines, results leading:

melting point [°C]	value in 3H-D-888 binding test (in vitro selectivity vs. L-type VSCC) [1]	IC50 [2] [nM]	Structure (SMILES)
131.5 to 132.8			CCc1ccc2c(c1)CCCC2N1CCCN(C)CC1 (centres unmarked) (as salt: salt) [Example 25, 1-Methyl-4-(6-ethyl-1,2,3,4-tetrahydro-1-naphthalenyl)homopiperazine]
78.8 to 79.5			CN1CCCN(C2CCCc3cc(F)ccc32)CC1 (centres unmarked) (as salt: salt) [Example 16, 1-Methyl-4-(6-fluoro-1,2,3,4-tetrahydro-1-naphthalenyl)homopiperazine]

Source: patent US6417183B1, “1,4-diazacycloheptane derivatives” (Astrazenela UK Limited, priority 1997, dated 2002)
